The record followed here is patent EP0629211B1 (HOECHST AKTIENGESELLSCHAFT, priority 1992, dated 1993).

SMILES strings stand for the structures. Read-outs that look alike come from different tables or passages of the source.

Experiment [1] has as its system gelfiltrierter Human-Thrombozyten. Briefly: Inhibition of aggregation of gel-filtered human platelets after ADP or thrombin stimulation. The experiment is classed as cell-based. The settings on record: platelet aggregation. An excerpt:
(§1) Geprüft werden die Verbindungen vor allem auf ihre hemmende Wirkung bei der Blutplättchenaggregation und der Anhaftung von Fibrinogen an Blutplättchen. Verwendet werden gefiltrierte Blutplättchen aus humanem Spenderblut, die mit ADP oder Thrombin aktiviert werden.
Als funktioneller Test wird die Hemmung der Aggregation gelfiltrierter Human-Thrombozyten nach ADP- oder Thrombin-Stimulierung durch die erfindungsgemäßen Verbindungen gemessen. Angegeben ist der IC50-Wert der Hemmung.

The target in experiment [2] is T1, Rezeptor (Glykoprotein IIb/IIIa) (Homo sapiens, UniProt P05106+P08514).
T1 construct: an intakten, gelfiltrierten Human-Thrombozyten; endogenous in cells; host or cells: intact, gel-filtered human platelets from donor blood, stimulated with ADP (10 µM)
Briefly: Inhibition of 125I-fibrinogen binding to its receptor on intact gel-filtered human platelets. The settings on record: inhibition of 125I-fibrinogen binding after stimulation with ADP (10µM), read-out: Ki (µM), ADP stimuliert.
From the text: as §1
Geprüft wird die Hemmung der Bindung von Fibrinogen an seinen Rezeptor (Glykoprotein IIb/IIIa) an intakten, gelfiltrierten Human-Thrombozyten durch die erfindungsgemäßen Verbindungen. Angegeben ist der Ki Wert der Bindungshemmung von ^125I-Fibrinogen nach Stimulierung mit ADP (10µM).

The mark [3] stands for this setting: ADP-stimulated, read-out: IC50 (µM), ADP-stimuliert.
Where [4] appears, read: thrombin-stimulated, read-out: IC50 (µM), Thrombin-stimuliert.

T1 sequence (P08514 32-887 limits assumed): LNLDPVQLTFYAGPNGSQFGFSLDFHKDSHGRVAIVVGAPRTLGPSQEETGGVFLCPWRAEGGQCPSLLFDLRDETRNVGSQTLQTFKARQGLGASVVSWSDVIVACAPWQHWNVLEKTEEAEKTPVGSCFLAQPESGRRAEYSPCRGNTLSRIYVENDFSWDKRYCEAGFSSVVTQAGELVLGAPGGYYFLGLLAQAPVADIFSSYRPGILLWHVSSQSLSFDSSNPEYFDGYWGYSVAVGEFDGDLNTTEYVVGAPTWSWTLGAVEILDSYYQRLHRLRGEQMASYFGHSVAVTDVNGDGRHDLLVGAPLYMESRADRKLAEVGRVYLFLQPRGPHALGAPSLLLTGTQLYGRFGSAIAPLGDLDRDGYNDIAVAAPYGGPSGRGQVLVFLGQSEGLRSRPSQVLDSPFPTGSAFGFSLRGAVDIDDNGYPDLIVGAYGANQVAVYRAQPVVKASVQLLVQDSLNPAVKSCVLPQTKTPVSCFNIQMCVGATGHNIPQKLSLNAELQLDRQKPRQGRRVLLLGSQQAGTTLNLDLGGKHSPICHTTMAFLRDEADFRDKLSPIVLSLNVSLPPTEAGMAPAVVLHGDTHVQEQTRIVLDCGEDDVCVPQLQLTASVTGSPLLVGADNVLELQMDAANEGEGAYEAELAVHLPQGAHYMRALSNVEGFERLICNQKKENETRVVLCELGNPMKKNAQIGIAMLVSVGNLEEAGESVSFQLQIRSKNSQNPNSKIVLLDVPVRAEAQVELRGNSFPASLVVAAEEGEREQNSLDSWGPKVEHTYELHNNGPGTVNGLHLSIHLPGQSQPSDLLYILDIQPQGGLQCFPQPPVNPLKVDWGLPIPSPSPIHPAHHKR
T1 sequence (P08514 891-1039 partner limits assumed): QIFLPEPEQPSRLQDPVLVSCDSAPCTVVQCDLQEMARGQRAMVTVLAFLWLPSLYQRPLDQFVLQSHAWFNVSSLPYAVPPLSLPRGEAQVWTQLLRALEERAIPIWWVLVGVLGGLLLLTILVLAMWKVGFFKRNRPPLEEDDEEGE
T1 sequence (P05106 27-788): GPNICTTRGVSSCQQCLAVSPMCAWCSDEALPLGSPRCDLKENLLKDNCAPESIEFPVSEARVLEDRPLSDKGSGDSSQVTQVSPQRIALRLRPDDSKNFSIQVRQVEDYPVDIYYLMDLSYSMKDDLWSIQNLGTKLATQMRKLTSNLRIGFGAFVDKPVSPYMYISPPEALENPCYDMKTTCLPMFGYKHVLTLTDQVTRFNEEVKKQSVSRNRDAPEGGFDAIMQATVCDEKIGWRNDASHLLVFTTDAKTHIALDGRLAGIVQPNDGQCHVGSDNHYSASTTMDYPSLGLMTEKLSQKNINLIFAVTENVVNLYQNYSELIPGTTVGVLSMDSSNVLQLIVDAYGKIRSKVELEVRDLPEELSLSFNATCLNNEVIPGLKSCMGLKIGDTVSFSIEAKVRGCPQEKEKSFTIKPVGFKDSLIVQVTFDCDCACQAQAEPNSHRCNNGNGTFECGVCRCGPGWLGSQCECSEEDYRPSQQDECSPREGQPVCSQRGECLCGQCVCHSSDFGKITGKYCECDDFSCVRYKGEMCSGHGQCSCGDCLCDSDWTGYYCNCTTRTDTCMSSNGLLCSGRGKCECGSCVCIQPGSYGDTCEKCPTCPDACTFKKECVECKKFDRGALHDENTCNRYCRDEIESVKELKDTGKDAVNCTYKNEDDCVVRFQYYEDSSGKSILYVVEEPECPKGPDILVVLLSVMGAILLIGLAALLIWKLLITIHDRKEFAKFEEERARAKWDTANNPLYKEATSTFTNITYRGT

A word on the IC50: it is the concentration that inhibits the measured activity by half. As usually defined, the Ki is the dissociation constant of the complex between target and ligand, obtained from inhibition or displacement. In the case of `N=C(N)c1ccc(CC2NC(=S)N(CC(=O)N[C@@H](CC(=O)O)C(=O)N[C@H](C(=O)O)c3ccccc3)C2=O)cc1` (stereo partly drawn) [Beispiel 2, (5-(S,R)-(4-Formamidino-benzyl)-4-oxo-2-thioxoimidazolidin-3-yl)-acetyl-L-aspartyl-L-phenylglycin], the IC50 was found to be 0.55 µM in experiment [1] (setting [3]) and 0.2 µM in experiment [1] (setting [4]). Also, the Ki in experiment [2] was determined as 0.2 µM.

`N=C(N)NCCC[C@@H]1NC(=S)N(CC(=O)N[C@@H](CC(=O)O)C(=O)N[C@H](C(=O)O)c2ccccc2)C1=O`: the IC50 in experiment [1] (setting [3]) came to 0.5 µM; in experiment [1] (setting [4]), 0.1 µM. Moreover, in experiment [2], the Ki came to 0.07 µM.
